Experiments:
[1] = tested on: vomissements induits par le cisplatine; assay: Oral antiemetic activity against cisplatin-induced vomiting in the dog; format: in vivo, chien; settings: for VOMISSEMENTS % DE DIMINUTION EN NOMBRE / VOMISSEMENTS % DE DIMINUTION EN TOUT OU RIEN / VOMISSEMENTS NOMBRE MOYEN: 6 h observation, 4 dogs; for VOMISSEMENTS NOMBRE MOYEN: control 10,8
Source text: A titre d'exemple, on étudie ci-après l'activité antiémétique par voie orale du chlorhydrate du N-(quinuclidinyl-3) amino-4 chloro-5 méthoxy-2 benzamide, sous la forme du mélange racémique (code MD 780209), de l'énantiomère lévogyre de configuration S (code MD 200054) et de l'énantiomère dextrogyre de configuration R (code MD 200051), vis-à-vis des vomissements induits par le cisplatine chez le chien.
La méthode est dérivée de celle décrite par J.A. GYLYS et coll. (Res. Commun. Chem. Pathol. Pharmacol. 1979, 23, n° 1, p. 61-68). Les vomissements sont induits par injection intraveineuse de cisplatine (DCI) à la dose de 3 mg/kg chez des chiens tout-venants, mâle ou femelle, de poids compris entre 10 et 16 kg, à la diète hydrique depuis 24 heures.
Les composés à tester sont administrés par voie orale 60 minutes après l'injection de cisplatine.
Les animaux sont alimentés 1 h 30 après le traitement. La durée d'observation est de 6 heures après l'injection de cisplatine.

[2] = Side effects and toxicity at the active doses (no method described); format: in vivo; settings: in words, compared with the dextrorotatory enantiomer
[3] = dog, 15 μ g/kg oral 60 min after cisplatin 3 mg/kg i.v.
[4] = dog, 30 μ g/kg oral 60 min after cisplatin 3 mg/kg i.v.
[5] = dog, 7,5 μ g/kg oral 60 min after cisplatin 3 mg/kg i.v.

In the case of `COc1cc(N)c(Cl)cc1C(=O)NC1CN2CCC1CC2` (racemic) [MD 780209, N-(quinuclidinyl-3) amino-4 chloro-5 méthoxy-2 benzamide, reference compound], the “VOMISSEMENTS % DE DIMINUTION EN NOMBRE” value [1, 3] is reported as 81,4%, the “VOMISSEMENTS % DE DIMINUTION EN TOUT OU RIEN” value [1, 3] is reported as 25% and the “VOMISSEMENTS NOMBRE MOYEN” value [1, 3] is reported as 2.
With `COc1cc(N)c(Cl)cc1C(=O)N[C@H]1CN2CCC1CC2` [MD 200051, N-(quinuclidinyl-3) amino-4 chloro-5 méthoxy-2 benzamide] the “VOMISSEMENTS % DE DIMINUTION EN NOMBRE” value [1, 4] was 34,9%, the “VOMISSEMENTS % DE DIMINUTION EN TOUT OU RIEN” value [1, 4] was 0% and the “VOMISSEMENTS NOMBRE MOYEN” value [1, 4] was 7.
With `COc1cc(N)c(Cl)cc1C(=O)N[C@@H]1CN2CCC1CC2` [MD 200054, N-(quinuclidinyl-3) amino-4 chloro-5 méthoxy-2 benzamide] the “VOMISSEMENTS % DE DIMINUTION EN NOMBRE” value [1, 5] was 95,3%, the “VOMISSEMENTS % DE DIMINUTION EN TOUT OU RIEN” value [1, 5] was 75% and the “VOMISSEMENTS NOMBRE MOYEN” value [1, 5] was 0,5. For the same compound, the “inhiber les vomissements induits par des drogues anticancéreuses telles que le cisplatine” value ([1]; in words, compared with the antipode MD 200051 and the corresponding racemate) was “beaucoup plus actif” and the effets secondaires [2] was “moins d'effets secondaires”.
